Laboratory results: patent US4937232A, “Inhibition of protein kinase C by long-chain bases” (priority 1988, dated 1990)
“Also recorded” adds a separate entry of the source. Like-named read-outs stand apart in the source and are kept apart here.

Columns and labels:
human neutrophils = assay: Oxygen consumption (oxidative burst) of human neutrophils; format: cell-based; conditions: for RATE of oxygen consumption, NO SPHINGANINE: activator alone; for IC50: read-out: Concentration required for 50% inhibition
Description: Human neutrophils were obtained by continuous flow leukapheresis from normal adults. Residual erythrocytes were removed by hypotonic lysis with a resulting purity of >95% neutrophils. Alternatively peripheral blood was obtained by phlebotomy and neutrophils were isolated by HESPAN (6% Hetastarch, 0.9% NaCl) sedimentaion of erythrocytes, centrifugation through lymphocyte separation medium (9.4% sodium diatrizoate, 6.2% Ficoll), and hypotonic lysis of residual erythrocytes. Isolated cells were resuspended in phosphate buffered saline (PBS)-glucose, containing 0.6 mM CaCl2, 2.6 mM KCl, 1.5 mM KH2 PO4, 0.5 mM MgCl2, 136 mM NaCl, 8 mM Na2 HPO4, 5.5 mM glucose.
Oxygen consumption was measured using a Clark-type electrode with YSI model 53 oxygen monitor. Assays were conducted at 37° C. with 6.5×10^6 cells per ml with a total volume of either 2.5 ml or 4 ml. Effectors were injected into the electrode chamber using a Hamilton syringe. Initial slopes after the addition of the stimuli were used for rate calculations. For activators with a lag prior to the onset of the oxidative burst, maximal rates following the lag were used.

HL-60 cells = assay: PMA-induced adherence (attachment) of HL-60 cells; format: cell-based, human; conditions: for inhibition of PMA-induced attachment: 8 nM PMA
Experimental: Cells were centrifuged at 600 g for 3 min, and added at 1×10^5 cells per well in 12-well culture dishes. Medium, PMA, and long-chain bases (prepared as the 1:1 molar complex with fatty acid-free bovine serum albumin) at the indicated concentrations were added for a total volume of 2.0 ml. After the desired times, the cells in suspension were counted and checked for viability (trypan blue exclusion) with a hemacytometer. The attached cells were quantitated by measuring DNA content according to the method of West et al (Anal. Biochem., 147, 289-295, 1985) and by assaying for acid phosphatase according to the method of Schnyder (J. Exp. Med., 148, 434-445, 1978).

protein kinase C = assay: Triton X-100 mixed micellar assay for protein kinase C activity; format: biochemical, rat; conditions: mixed micellar assay
Experimental: Protein kinase C was partially purified from rat brain as described by Hanrun et al (J. Biol. Chem., 260, 10043, 1985), which is hereby incorporated by reference.
Protein kinase C was assayed with Triton X-100 mixed micelles as described by Hanrun et al, (ibid.), Sphingosine was dried down with the lipid cofactors.

[1] = Homo sapiens, Neutrophil, oxidative burst, PMA activation
[2] = oxidative burst, PMA activation

| IC50 (human neutrophils; [1]) | Molecule | inhibition of protein kinase C (specificity) (protein kinase C) | also measured |
| --- | --- | --- | --- |
|  | CCCCCCCC(=O)OCC(CO)OC(=O)CCCCCCC (centres unmarked) [Dioctanoyl Glycerol, 1,2-dioctanoylglycerol, reference compound] |  | RATE of oxygen consumption, NO SPHINGANINE (human neutrophils): 6.1 nmols O2 consumed/min/10^6 cells |
| > 100 µM | CCCCCCCCCCCCCCC[C@@H](O)[C@H](CO)NC(C)=O [N-acetylsphinganine, reference compound] |  | inhibition of PMA-induced attachment (HL-60 cells; at up to 500 μM): not inhibitory |
| 300 µM | CCCCCCCCN [Octylamine, reference compound] | did not inhibit | inhibition of PMA-induced attachment (HL-60 cells): did not inhibit |
|  | 3-amino-3-hydroxy-3-phenyl-propanol [reference compound] |  | IC50 (human neutrophils; [2]): > 100 µM |
|  | CCCCCCCCCCCCCCCC(=O)NC(CO)C(O)CCCCCCCCCCCCCCC (centres unmarked) [N-palmitoyldihydrosphingosine, reference compound] |  | inhibition of PMA-induced attachment (HL-60 cells): not inhibitory |
|  | NC(CO)C(O)c1ccccc1 (centres unmarked) [1,3-dihydroxy-2-amino-3-phenylpropane] | not to be inhibitors | inhibition of PMA-induced attachment (HL-60 cells): did not inhibit; inhibition of protein kinase C (specificity) (protein kinase C; listed as 1,3-dihydroxy-2-amino-3 phenylpropane): without effect |
| 24 µM | CCCCCCCCCCCCCCC[C@H](O)[C@@H](N)CO (relative stereo) [threo-Sphinganine] | inhibitors | times less effective than erythro-sphinganine (human neutrophils; [2]): 3-4 times |
|  | O[C@H]1[C@H]2[C@H](O)CCCN2C[C@H]1O [Swainsonine] | not an inhibitor |  |
|  | CCCCC/C=C\C/C=C\C/C=C\C/C=C\CCCC(=O)O [Arachidonate, reference compound] |  | RATE of oxygen consumption, NO SPHINGANINE (human neutrophils): 4.2 nmols O2 consumed/min/10^6 cells |
|  | CCCCCCCCCCCCCCCC(=O)C(N)CO (centres unmarked) [3-ketosphinganine] | inhibitors |  |
|  | CCCCCCCCCCCCC/C=C/[C@@H](O)[C@H](CO)NC(C)=O [N-acetylsphingosine] | without effect; also recorded: not to be inhibitors |  |

| Molecule | IC50 (human neutrophils; [1]) | inhibition of protein kinase C (specificity) (protein kinase C) | also measured |
| --- | --- | --- | --- |
| CCCCCCCCCCCCCCCCCCN [Stearylamine, reference compound] | 25 µM | nearly as effective as sphingosine | IC50 (HL-60 cells; Homo sapiens, HL-60, read-out: 50% inhibition of PMA-induced attachment): 10 µM |
| CCCCCCCCCCCCCCCC[N+](C)(C)C.[Br-] [CTAB, cetyl trimethylammonium bromide] | > 100 µM |  | inhibition of protein kinase C (specificity) (protein kinase C; listed as cetyl triethylammonium bromide): inactive; also recorded: not to be inhibitors |
